The source of these data is ChEMBL document CHEMBL1201862, “PubChem BioAssay data set” (2004).

Among the test systems are UO-31; A498; SF-295; HL-60; OVCAR-8; OVCAR-3; SNB-19; K562; NCI-H226; CAKI-1; COLO 205; RPMI-8226; DLD-1; HT-29; NCI-H522; HCC 2998; UACC-257; SK-MEL-2.
What all share (experiment): NCI tumour cell line growth inhibition, 48 h

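Grown in 96-well plates, cells were treated for 48 hours with each compound at five concentrations. Insufficient inhibition: endpoint recorded as highest concentration tested. Here, GI50 denotes the concentration required for 50% inhibition of growth.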 The source made the active and inactive calls. Rule as the data show it: active = GI50 up to about 1.1 µM and inactive = higher.

As to `N#CC(Sc1ccccc1)C(N)=O` (stereo not given), the GI50 in the assay with UO-31, in the assay on A498, in the assay with SF-295, with HL-60, with OVCAR-8 and in the assay with OVCAR-3 was > 100 µM (inactive) each time. In addition, the GI50 in the assay with SNB-19, in the assay with K562, in the assay with NCI-H226, in the assay on CAKI-1, with COLO 205 and with RPMI-8226 was > 100 µM (inactive) each time. Further, the GI50 in the assay with DLD-1, with HT-29, in the assay with NCI-H522, in the assay on HCC 2998 and in the assay with UACC-257 was > 100 µM (inactive) each time.

As for `CS(=O)(=O)NNS(=O)(=O)c1ccccc1`, the GI50 in the assay with UO-31, in the assay on A498, with SF-295, with HL-60, in the assay on OVCAR-8 and with SNB-19 was > 100 µM (inactive) throughout. The GI50 with K562, in the assay on NCI-H226, in the assay on CAKI-1, in the assay with COLO 205, with RPMI-8226 and with DLD-1 was > 100 µM (inactive) throughout. The GI50 with HT-29, in the assay with SK-MEL-2, in the assay on NCI-H522, with HCC 2998 and in the assay with UACC-257 was > 100 µM (inactive) in each case.

Take `CCCCNS(=O)(=O)c1ccc(-c2ccc3c(c2)-c2ccc(S(=O)(=O)NCCCC)cc2S3(=O)=O)cc1`: the GI50 was 42.5 µM (inactive) with UO-31; 11.4 µM (inactive) with A498; 15 µM (inactive) in the assay with SF-295; > 100 µM (inactive) in the assay on HL-60; 7.98 µM (inactive) with OVCAR-8; 24.9 µM (inactive) in the assay on OVCAR-3. Further, the GI50 was 3.03 µM (inactive) in the assay on K562; 12.6 µM (inactive) with NCI-H226; 25.3 µM (inactive) in the assay on COLO 205; 27.9 µM (inactive) with RPMI-8226; 43.6 µM (inactive) with DLD-1; 19.2 µM (inactive) with HT-29. Moreover, the GI50 was 12.9 µM (inactive) with SK-MEL-2, 14.5 µM (inactive) with NCI-H522, > 100 µM (inactive) in the assay with HCC 2998 and 13.1 µM (inactive) in the assay on UACC-257.

On to `O=C(NOC(=O)c1ccc([N+](=O)[O-])cc1)c1ccc(Cl)cc1`, for which the GI50 was 23.8 µM (inactive) with UO-31; > 100 µM (inactive) with A498; > 100 µM (inactive) with SF-295; 15.8 µM (inactive) in the assay on HL-60; 98.6 µM (inactive) in the assay on OVCAR-8; > 100 µM (inactive) in the assay with SNB-19. Moreover, the GI50 was 21.6 µM (inactive) in the assay with K562; 39.6 µM (inactive) with CAKI-1; > 100 µM (inactive) in the assay on COLO 205; 65.2 µM (inactive) with RPMI-8226; 38.7 µM (inactive) with DLD-1; > 100 µM (inactive) in the assay on HT-29. Moreover, the GI50 was > 100 µM (inactive) in the assay with SK-MEL-2, 27 µM (inactive) in the assay with NCI-H522, > 100 µM (inactive) in the assay with HCC 2998 and > 100 µM (inactive) in the assay with UACC-257.

Take `CN[C@@H](C)[C@@H](N)c1ccccc1`: the GI50 in the assay with UO-31, in the assay on A498, in the assay on SF-295, in the assay with OVCAR-8, in the assay with OVCAR-3 and in the assay on SNB-19 was > 100 µM (inactive) in each case. Further, the GI50 in the assay on K562, with NCI-H226, with CAKI-1, in the assay with COLO 205, in the assay on RPMI-8226 and with DLD-1 was > 100 µM (inactive) each time. The GI50 in the assay on HT-29, in the assay with NCI-H522, in the assay on HCC 2998 and with UACC-257 was > 100 µM (inactive) throughout.

As for `CCOC(=O)NC1C2CC(=O)OC(O2)C1OC(C)=O` (stereo not given), the GI50 was 60.7 µM (inactive) in the assay on UO-31; > 100 µM (inactive) with A498; > 100 µM (inactive) in the assay on SF-295; > 100 µM (inactive) in the assay with OVCAR-8; > 100 µM (inactive) with OVCAR-3; > 100 µM (inactive) in the assay on SNB-19. Also, the GI50 is > 100 µM (inactive) in the assay on K562; 0.424 µM (active) with NCI-H226; > 100 µM (inactive) in the assay with CAKI-1; > 100 µM (inactive) in the assay with COLO 205; > 100 µM (inactive) with RPMI-8226; 90.6 µM (inactive) with DLD-1. Also, the GI50 in the assay with HT-29, with SK-MEL-2, with NCI-H522, with HCC 2998 and in the assay on UACC-257 was > 100 µM (inactive) each time.

Consider `[N-]=[N+]=NCC(O)Cn1cnc2c(NC(=O)c3ccccc3)ncnc21` (stereo not given), for which the GI50 with UO-31, with A498, in the assay with SF-295, with HL-60, in the assay on OVCAR-8 and in the assay with SNB-19 was > 100 µM (inactive) in each case. Also, the GI50 in the assay with K562 is 79.4 µM (inactive); in the assay with NCI-H226 it was > 100 µM (inactive); with CAKI-1, > 100 µM (inactive); with COLO 205, 27.8 µM (inactive); with RPMI-8226, > 100 µM (inactive); in the assay on DLD-1 it was > 100 µM (inactive). The GI50 with HT-29, in the assay on SK-MEL-2, in the assay with NCI-H522, with HCC 2998 and in the assay on UACC-257 was > 100 µM (inactive) each time.

Take `Nc1ncnc2c1ncn2C1OC(CSC(F)(F)F)C(O)C1O` (stereo not given): the GI50 in the assay with UO-31, in the assay with A498, in the assay with SF-295, in the assay on HL-60, in the assay with OVCAR-8 and in the assay with OVCAR-3 was > 100 µM (inactive) throughout. The GI50 in the assay with K562, in the assay on NCI-H226, in the assay on CAKI-1, with COLO 205, in the assay with RPMI-8226 and with DLD-1 was > 100 µM (inactive) throughout. For the same compound, the GI50 with HT-29, in the assay on SK-MEL-2, with NCI-H522, in the assay with HCC 2998 and with UACC-257 was > 100 µM (inactive) throughout.

For `CCOC(=O)COc1cccc2c1C(=O)CCO2`, the GI50 in the assay on UO-31, in the assay with A498, in the assay on SF-295, in the assay on HL-60, in the assay on OVCAR-8 and in the assay on OVCAR-3 was > 100 µM (inactive) each time. Further, the GI50 in the assay on SNB-19, with K562, in the assay with CAKI-1, in the assay on COLO 205, in the assay on RPMI-8226 and in the assay with DLD-1 was > 100 µM (inactive) in each case. For the same compound, the GI50 in the assay on HT-29, in the assay on SK-MEL-2, with NCI-H522, in the assay on HCC 2998 and in the assay on UACC-257 was > 100 µM (inactive) in each case.
